PMC9437215, “Synthesis and antibacterial activity evaluation of N (7) position-modified balofloxacins” (Frontiers in Chemistry, 2022)
Values after ≈ are worked out from the molar mass of the structure shown. Like-named read-outs stand apart in the source and are kept apart here.

Columns and labels:
[1] = tested on: P. aeruginosa; experiment: MIC and MBC determinations in vitro, P. aeruginosa; type: cell-based; conditions: P. aeruginosa clinical isolate; for MIC: 24 h culture; for MBC: solid medium 24 h
Protocol: (§1) The three strains of MRSA, P. aeruginosa, and E. coli used in this experiment were from clinical isolates, which were provided by the People’s Liberation Army 304 Hospital.
(§2) To evaluate the antibacterial activities of newly synthesized N (7) position modified fluoroquinolones, the minimum inhibitory (MIC) and bactericidal (MBC) concentrations of these compounds toward bacteria were measured.

[2] = tested on: MRSA; experiment: MIC and MBC determinations in vitro, MRSA; type: cell-based; conditions: Staphylococcus aureus, MRSA, 24 h, MRSA clinical isolate; for MIC: 24 h culture, read-out: MIC; for MBC: solid medium 24 h, read-out: MBC
Protocol: as §1, §2

[3] = tested on: E. coli; experiment: MIC and MBC determinations in vitro, E. coli; type: cell-based; conditions: Escherichia coli, E. coli clinical isolate; for MIC: 24 h culture; for MBC: solid medium 24 h
Protocol: as §1, §2

[4] = tested on: MRSA, P. aeruginosa, and E. coli; experiment: MIC and MBC values stated over the three strains together; type: cell-based; conditions: range over MIC and MBC and the three strains; read-out: MIC and MBC values
Protocol: as §1, §2

[5] = Hemolytic activity; type: cell-based, rabbit; conditions: male, New Zealand white, rabbit, red cell suspension from rabbit blood; even at high concentrations (> 10^5 × MIC), 37°C, 24 h; read-out: hemolysis rate
Protocol: The animal experiment was approved by the Laboratory Animal Management Committee/Laboratory Animal Welfare Ethics Committee, Institute of Radiation Medicine, Chinese Academy of Medical Sciences (No. IRM-DWLL-2019153). Hemolysis anemia is one of the major adverse reactions of antibiotics. To assess the blood compatibility of N (7) position modified balofloxacin, the hemolytic activity of 2-e was tested. Fresh rabbit blood, obtained from the ear vein of a male New Zealand white rabbit, was diluted at a ratio of 1:20 in volume with PBS, centrifuged and resuspended in PBS at 1,000 rpm for 5 min to form an experimental red cell suspension. 500 μL drug 2-e solution and equal volumes of blood suspension were mixed in which the final drug concentration was 500, 250, 125, 62.5, 31.25, 15.62, 7.81, 3.91, 1.95, and 0.98 μg/ml, respectively, these mixtures were incubated at 37°C for 24 h. The positive control group was an equal volume of diluted blood cells mixed with an equal volume of 0.5% Triton X-100. The negative control group was mixed with an equal volume of PBS and diluted blood cells. After incubation, the mixture in a series of centrifuge tubes was centrifuged under the same conditions, and 200 μL of the supernatant was aspirated and transferred to a 96-well plate. The release of hemoglobin from the main contents was measured at A405nm using a microplate reader (Thermo, Varioskan Flash 3001, United States). Each data were from the triplicate experiments. The percentage of hemolysis in the hemolysis test was calculated according to the following formula: %Hemolysis=(A405 test sample−A405 negative control)/(A405 positive control−A405 negative control).

[6] = tested on: MRSA; experiment: Time-dependent antibacterial effects in vitro; type: cell-based
Protocol: In order to further verify the antibacterial effect of the representative compound 2-e, time-dependent bactericidal activity of 2-e against MRSA was determined. This study referred to the reported methods ([Ling et al., 2015]). MRSA was cultured overnight in LB liquid and the bacterial solution at 10^9 CFU/ml tested on the machine was diluted at 1:10,000 with LB liquid medium and cultured at 37°C, 180 rpm. […] Time-dependent bacterial colonies were evaluated at 4 or 8 h intervals as follows: 100 μL of the mixture at the current time point was taken and centrifuged at 10,000 rpm for 2 min, and the pellet formed was dispersed with PBS, which was diluted by the ten-fold dilution method. 100 μL of bacterial dilution was evenly spread on LB solid medium at 37°C for 24 h. The colonies counted, according to national standards, accounted for the drug’s time-dependent antibacterial results. The same experimental operation was repeated three times independently.

[7] = tested on: MRSA cells; experiment: Cell wall damage monitored by atomic force microscopy (AFM); type: cell-based; conditions: 10 μM, 37°C, 30 min
Protocol: To observe the structural changes in the bacterial surface after the administration of balofloxacin derivative 2-e, atomic force microscope assay was performed. The bacterial suspension was diluted with LB liquid medium to 10^7 CFU/ml. The bacterial solution and the drug solution were mixed in an equal volume so that the concentration of 1e and 2-e was 10 μM in the final solution, respectively. And after mixing, it was incubated at 37°C for 30 min, together with the control group in the same way. After that, the sample was centrifuged at 9,000 rpm for 5 min and the supernatant was discarded, while the precipitate was washed twice with physiological saline in the same volume and centrifuged at 9,000 rpm for 5 min. Finally, the bacterial sample, prepared by dispersion in the same volume of physiological saline solution, was dropped onto the surface of the mica plate (about 0.5 cm^2), dried naturally at ambient temperature, and scanned by an atomic force microscope.

[8] = Pseudomonas aeruginosa, read-out: MIC
[9] = Pseudomonas aeruginosa, read-out: MBC

| Structure (SMILES) | melting point [°C] | MIC [1, 8] [µg/mL] | MBC [1, 9] [µg/mL] | MIC [2] [µg/mL] | MBC [2] [µg/mL] | MIC [3] [µg/mL] | MBC [3] [µg/mL] | MBC [4] [µg/mL] | MIC [1] [µg/mL] | MBC [1] [µg/mL] | hemolysis at 24 h [5] [%] | antibacterial activity in early and late stages of the exponential growth phase ([6]; 10 × MIC, MRSA) | log10 CFU after the first 8 h ([6]; early exponential phase, start log10 CFU 5.5, 10 × MIC) | structural change of MRSA cells in AFM image [7] |
| --- | --- | --- | --- | --- | --- | --- | --- | --- | --- | --- | --- | --- | --- | --- |
| CCCCCCCC(=O)N(C)C1CCCN(c2c(F)cc3c(=O)c(C(=O)O)cn(C4CC4)c3c2OC)C1 (stereo not shown) [Compound 8-e, 1-Cyclopropyl-6-fluoro-8-methoxy-7-(3-(N-methyloctanamido)piperidin-1-yl)-4-oxo-1,4-dihydroquinoline-3-carboxylic acid] | 68.2 to 70 | 1.25 (≈ 2.42 µM) | 5 (≈ 9.7 µM) | 1.25 (≈ 2.42 µM) | 5 (≈ 9.7 µM) | > 40 | > 40 |  |  |  |  |  |  |  |
| COc1c(N2CCCC(N(C)C(=O)CC#N)C2)c(F)cc2c(=O)c(C(=O)O)cn(C3CC3)c12 (stereo not shown) [Compound 22-e, 7-(3-(2-Cyano-N-methylacetamido)piperidin-1-yl)-1-cyclopropyl-6-fluoro-8-methoxy-4-oxo-1,4-dihydroquinoline-3-carboxylic acid] | 184.8 to 186.2 | 0.78 (≈ 1.71 µM) | 1.56 (≈ 3.42 µM) | 0.39 (≈ 0.854 µM) | 0.78 (≈ 1.71 µM) | 0.78 (≈ 1.71 µM) | 1.56 (≈ 3.42 µM) |  |  |  |  |  |  |  |
| C[C@H]1COc2c(C3(N)CC3)c(F)cc3c(=O)c(C(=O)O)cn1c23 [Compound 1g, pazufloxacin, reference compound] |  | 0.313 (≈ 0.983 µM) | 0.625 (≈ 1.96 µM) | 0.156 (≈ 0.49 µM) | 0.313 (≈ 0.983 µM) | 0.156 (≈ 0.49 µM) | 0.313 (≈ 0.983 µM) | 0.156 to 0.625 (≈ 0.49 to 1.96 µM) |  |  |  |  |  |  |
| COc1c(N2CCCC(N(C)C(=O)C3CCCO3)C2)c(F)cc2c(=O)c(C(=O)O)cn(C3CC3)c12 (stereo not shown) [Compound 14-e, 1-Cyclopropyl-6-fluoro-8-methoxy-7-(3-(N-methyltetrahydrofuran-2-carboxamido)piperidin-1-yl)-4-oxo-1,4-dihydroquinoline-3-carboxylic acid] | 140.2 to 141.2 | 0.156 (≈ 0.32 µM) | 0.313 (≈ 0.642 µM) | 0.078 (≈ 0.16 µM) | 0.156 (≈ 0.32 µM) | 20 (≈ 41 µM) | 20 (≈ 41 µM) |  |  |  |  |  |  |  |
| CC(=O)NC1(c2c(F)cc3c(=O)c(C(=O)O)cn4c3c2OCC4C)CC1 (stereo not shown) [Compound 2-g, 10-(1-Acetamidocyclopropyl)-9-fluoro-3-methyl-7-oxo-2,3-dihydro-7H-[1,4]oxazino[2,3,4-ij]quinoline-6-carboxylic acid] | 273.1 to 274.1 | 25 (≈ 69.4 µM) | 50 (≈ 139 µM) | 25 (≈ 69.4 µM) | 50 (≈ 139 µM) | 25 (≈ 69.4 µM) | 50 (≈ 139 µM) | 25 to 50 (≈ 69.4 to 139 µM) |  |  |  |  |  |  |
| COc1c(N2CCCC(N(C)C(=O)C3CC3)C2)c(F)cc2c(=O)c(C(=O)O)cn(C3CC3)c12 (stereo not shown) [Compound 11-e, 1-Cyclopropyl-6-fluoro-8-methoxy-7-(3-(N-methylcyclopropanecarboxamido)piperidin-1-yl)-4-oxo-1,4-dihydroquinoline-3-carboxylic acid] | 104.6 to 106.5 | 0.078 (≈ 0.17 µM) | 0.156 (≈ 0.341 µM) | 0.039 (≈ 0.0852 µM) | 0.078 (≈ 0.17 µM) | 10 (≈ 21.9 µM) | 20 (≈ 43.7 µM) |  |  |  |  |  |  |  |
| CNC1CCCN(c2c(F)cc3c(=O)c(C(=O)O)cn(C4CC4)c3c2OC)C1 (stereo not shown) [Compound 1e, balofloxacin] |  | 0.078 (≈ 0.2 µM) | 0.156 (≈ 0.401 µM) | 0.078 (≈ 0.2 µM) | 0.156 (≈ 0.401 µM) | 0.078 (≈ 0.2 µM) | 0.156 (≈ 0.401 µM) |  | 0.078 (≈ 0.2 µM) | 0.156 (≈ 0.401 µM) | ≤ 5 | good antibacterial activity | 0 | ruptured and there was an outflow of cellular contents |
| COc1c(N2CCCC(N(C)C(=O)c3ccco3)C2)c(F)cc2c(=O)c(C(=O)O)cn(C3CC3)c12 (stereo not shown) [Compound 13-e, 1-Cyclopropyl-6-fluoro-8-methoxy-7-(3-(N-methylfuran-2-carboxamido)piperidin-1-yl)-4-oxo-1,4-dihydroquinoline-3-carboxylic acid] | 167.5 to 168.7 | 0.078 (≈ 0.161 µM) | 0.156 (≈ 0.323 µM) | 0.078 (≈ 0.161 µM) | 0.156 (≈ 0.323 µM) | 10 (≈ 20.7 µM) | 20 (≈ 41.4 µM) |  |  |  |  |  |  |  |
| CCCCCCCCCC(=O)N(C)C1CCCN(c2c(F)cc3c(=O)c(C(=O)O)cn(C4CC4)c3c2OC)C1 (stereo not shown) [Compound 10-e, 1-Cyclopropyl-6-fluoro-8-methoxy-7-(3-(N-methyldecanamido)piperidin-1-yl)-4-oxo-1,4-dihydroquinoline-3-carboxylic acid] | 65.2 to 68.1 | 5 (≈ 9.2 µM) | 20 (≈ 36.8 µM) | 5 (≈ 9.2 µM) | 20 (≈ 36.8 µM) | > 40 | > 40 |  |  |  |  |  |  |  |
| COc1c(N2CCCC(N(C)C(=O)C3CCCC3)C2)c(F)cc2c(=O)c(C(=O)O)cn(C3CC3)c12 (stereo not shown) [Compound 16-e, 1-Cyclopropyl-6-fluoro-8-methoxy-7-(3-(N-methylcyclopentanecarboxamido)piperidin-1-yl)-4-oxo-1,4-dihydroquinoline-3-carboxylic acid] | 105.1 to 106.4 | 0.313 (≈ 0.645 µM) | 0.625 (≈ 1.29 µM) | 0.313 (≈ 0.645 µM) | 0.625 (≈ 1.29 µM) | 20 (≈ 41.2 µM) | 40 (≈ 82.4 µM) |  |  |  |  |  |  |  |
